“Also recorded” adds a separate entry of the source.
Key:
mitofusin [1] = system: T1, mitofusin; test: mitofusin-dependent mitochondrial elongation (aspect ratio), functional screening; type: cell-based, mouse; settings: DMSO vehicle, Reg C positive control; FIGS. 2-5
T1 construct: EC50 Mito Elongation; other: benchmark <30; unit given as nm; results of functional screening (mitochondrial elongation); other: DMSO vehicle, Reg C positive control

MFN2 = biological target: T2, MFN2 (Homo sapiens, UniProt O95140); test: conformational opening of mitofusin 2; type: biochemical; settings: FIG. 6B
T2 sequence (O95140 1-757): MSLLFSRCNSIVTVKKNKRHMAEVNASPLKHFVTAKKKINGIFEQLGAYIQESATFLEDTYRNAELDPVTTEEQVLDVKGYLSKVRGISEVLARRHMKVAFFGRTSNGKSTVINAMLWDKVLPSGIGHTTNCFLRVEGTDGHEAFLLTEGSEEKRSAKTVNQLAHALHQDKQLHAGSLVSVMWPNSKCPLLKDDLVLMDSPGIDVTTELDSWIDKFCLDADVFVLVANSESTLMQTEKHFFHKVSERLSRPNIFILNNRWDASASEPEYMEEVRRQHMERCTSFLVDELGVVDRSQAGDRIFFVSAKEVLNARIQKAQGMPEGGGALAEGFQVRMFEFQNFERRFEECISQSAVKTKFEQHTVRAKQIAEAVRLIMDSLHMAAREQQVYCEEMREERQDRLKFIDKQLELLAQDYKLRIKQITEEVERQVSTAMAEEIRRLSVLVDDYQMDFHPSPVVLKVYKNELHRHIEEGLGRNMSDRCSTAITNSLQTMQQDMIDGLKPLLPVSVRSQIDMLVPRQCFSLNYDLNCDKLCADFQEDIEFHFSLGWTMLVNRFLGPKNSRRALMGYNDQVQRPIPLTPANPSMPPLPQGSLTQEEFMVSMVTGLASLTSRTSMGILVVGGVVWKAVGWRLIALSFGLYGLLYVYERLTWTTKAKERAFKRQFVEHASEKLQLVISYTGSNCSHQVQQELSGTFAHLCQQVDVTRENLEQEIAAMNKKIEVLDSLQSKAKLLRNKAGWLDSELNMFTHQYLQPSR

Plasma stability, human = type: in vitro ADME; settings: H
Plasma stability, mouse = type: in vitro ADME; settings: M
mitofusin [2] = settings: Rocha et al 2018 Science 360:336; read-out: EC50 as mitofusin activator; cited from earlier work

CC1CC(O)CCC1NC(=O)NCCCCc1ccccc1 (stereo not shown) [MiM5, 1-(4-Hydroxy-2-methylcyclohexyl)-3-(4-phenylbutyl)urea]
results of functional screening (mitochondrial elongation) (mitofusin [1]): highly active

O=C(CCCCCc1ccccn1)NC1CCC(O)CC1 (stereo not shown) [MiM111 N1, (4-Hydroxycyclohexyl)-6-(pyridin-2-yl)hexanamide]
results of functional screening (mitochondrial elongation) (mitofusin [1]): All compounds except MiM111 N1 were highly active

O=C(CCCCCc1ccccc1)NC1CCC(O)CC1 (stereo not shown) [MiM111, N-(4-hydroxycyclohexyl)-6-phenylhexanamide]
conformational opening of MFN2 (MFN2): induces an open conformation of its target MFN2; also recorded: conformational opening of MFN 2 mimics that of an agonist peptide | Plasma Stability (120 min.) (Plasma stability, human): 87% | Plasma Stability (120 min.) (Plasma stability, mouse): 100%

CC1CCCCC1NC(=O)NCCSCc1ccccc1 (stereo not shown) [compound A, 1-[2-(benzylsulfanyl)ethyl]-3-(2-methylcyclohexyl)urea]
EC50 (mitofusin [2]): ~30 nM

CC(Sc1nnc(C2CC2)n1-c1ccccc1)C(=O)Nc1sc2c(c1C(N)=O)CCC2 (stereo not shown) [compound B, 2-{2-[(5-cyclopropyl-4-phenyl-4H-1,2,4-triazol-3-yl)sulfanyl]propanamido}-4H,5H,6H-cyclopenta[b]thiophene-3-carboxamide]
EC50 (mitofusin [2]): ~10 nM
